The source of these data is patent US20220132846A1, “1-PYRIDYL-PYRAZOLYL AMIDE COMPOUNDS AND PREPARATION AND USES THEREOF” (HUNAN RESEARCH INSTITUTE OF CHEMICAL INDUSTRY CO., LTD., priority 2019, published 2022).

A value given as a limit tells only on which side of the number the result lay.

In assay [1] the test system is Aphis fabae. Nature of the assay: Test against aphid, leaf dip method (Aphis fabae). Type of assay: in vivo. The conditions noted are these: foliar; for mortality at 12.5 µg/mL: 12.5 mg/L; for mortality at 12.5 µg/mL / mortality at 50 µg/mL / mortality at 200 µg/mL / mortality at 500 µg/mL: after 24 hours, read-out: Activity (mortality) level against Aphis fabae; for mortality at 50 µg/mL: 50 mg/L; for mortality at 200 µg/mL: 200 mg/L; for mortality at 500 µg/mL: 500 mg/L. The procedure: For evaluating the activity of the compounds of this invention against Homoptera pests, Aphis fabae, wheat aphids, etc. were selected as the test insects, and the activity of the compounds of this invention against aphids was measured by leaf dip method indoors.
Leaf dip method (Aphis fabae): the test compound was dissolved in an appropriate solvent such as N,N-dimethylformamide, and then diluted with 0.2% aqueous solution of Tween 80 to the desired concentration, Those without the test compounds were set as blank controls, the treatments were replicated 3 times. Horsebean seedlings with no less than twenty 3-day-old Aphis fabae per plant was cut from the stem, 5 horsebean seedlings with the insects were dipped in the test solution for 5 seconds, then inserted into a sponge filled with water after sucked dry using filter paper, then covered with a glass tube and placed in a chamber for culture. After 24 hours, the number of living and dead insects were investigated and the results were averaged. […]

Assay [2] concerns Armyworm (Mythimna separata (Walker)). In words: Test against armyworm, Potter tower method. The conditions noted are these: for mortality at 12.5 µg/mL / mortality at 50 µg/mL / mortality at 500 µg/mL: Mythimna separata, third-instar larvae, after 72 hours, read-out: Activity (mortality) level against armyworm; for mortality at 12.5 µg/mL: 12.5 mg/L; for mortality at 50 µg/mL: 50 mg/L; for mortality at 500 µg/mL: 500 mg/L; for Activity against armyworm, further screening (in words): compared with chlorantraniliprole (D1). In kind it is in vivo. The procedure:
Potter tower method: the test compound was dissolved in an appropriate solvent such as N,N-dimethylformamide, and then diluted with 0.2% aqueous solution of Tween 80 to the desired concentration, Those without the test compounds were set as blank controls. The fresh and tender corn leaves were taken and cut into fragments of basically the same size, then put into a Petri dish (diameter 90 mm) padded with filter paper in advance. Ten third-instar larvae of test insects were transferred into the dish and then placed under the Potter spray tower for being sprayed, each concentration treatment was sprayed at the amount of 1 mL and replicated 3 times. The dish was covered and then placed in a chamber for culture and observed regularly, after 72 hours, the dead insects was investigated and recorded and the mean mortality was calculated. […]

Take `CCCNC(=O)c1cc(Cl)cc(Cl)c1N(C)C(=O)c1cc(Br)nn1-c1ncccc1Cl` [Compound 3, N-[2,4-dichloro-6-[(propylamino)carbonyl]phenyl]-N-methyl-1-(3-chloro-2-pyridinyl)-3-bromo-1H-pyrazole-5-carboxamide]: in assay [1], the mortality (usually the percentage killed) at 12.5 µg/mL was 90 to 100%, the mortality at 50 µg/mL lay in the range of 90 to 100%, the mortality at 200 µg/mL lay in the range of 90 to 100% and the mortality at 500 µg/mL was in the range of 90 to 100%. In assay [2], the mortality at 12.5 µg/mL is 90 to 100%, the mortality at 50 µg/mL was 90 to 100% and the mortality at 500 µg/mL lay within 90 to 100%.

With `CC(C)NC(=O)c1cc(Cl)cc(Cl)c1N(C)C(=O)c1cc(Br)nn1-c1ncccc1Cl` [Compound 5, N-[2,4-dichloro-6-[(isopropylamino)carbonyl]phenyl]-N-methyl-1-(3-chloro-2-pyridinyl)-3-bromo-1H-pyrazole-5-carboxamide], in assay [1], the mortality at 12.5 µg/mL fell in the range of 90 to 100%, the mortality at 50 µg/mL lay within 90 to 100%, the mortality at 200 µg/mL lay within 90 to 100% and the mortality at 500 µg/mL fell in the range of 90 to 100%. For the same compound, in assay [2], the mortality at 12.5 µg/mL lay within 90 to 100%; the mortality at 50 µg/mL lay in the range of 90 to 100%; the mortality at 500 µg/mL is 90 to 100%; the “Activity against armyworm, further screening (in words)” value is reported as “excellent activity”.

Take `CN(C(=O)c1cc(Br)nn1-c1ncccc1Cl)c1c(Cl)cc(Cl)cc1C(=O)NC1CC1` [Compound 6, N-[2,4-dichloro-6-[(cyclopropylamino)carbonyl]phenyl]-N-methyl-1-(3-chloro-2-pyridinyl)-3-bromo-1H-pyrazole-5-carboxamide]: in assay [1], the mortality at 12.5 µg/mL was 90 to 100%, the mortality at 50 µg/mL lay within 90 to 100%, the mortality at 200 µg/mL was in the range of 90 to 100% and the mortality at 500 µg/mL lay within 90 to 100%. In addition, in assay [2], the mortality at 12.5 µg/mL was 90 to 100%, the mortality at 50 µg/mL was 90 to 100% and the mortality at 500 µg/mL was in the range of 90 to 100%.

With `CCCCNC(=O)c1cc(Cl)cc(Cl)c1N(C)C(=O)c1cc(Br)nn1-c1ncccc1Cl` [Compound 7, N-[2,4-dichloro-6-[(butylamino)carbonyl]phenyl]-N-methyl-1-(3-chloro-2-pyridinyl)-3-bromo-1H-pyrazole-5-carboxamide], in assay [1], the mortality at 50 µg/mL lay in the range of 90 to 100%, the mortality at 200 µg/mL was 90 to 100% and the mortality at 500 µg/mL fell in the range of 90 to 100%. Moreover, in assay [2], the mortality at 50 µg/mL lay in the range of 90 to 100% and the mortality at 500 µg/mL lay within 90 to 100%.

For `CC(C)N(C)C(=O)c1cc(Cl)cc(Cl)c1N(C)C(=O)c1cc(Br)nn1-c1ncccc1Cl` [Compound 13, N-[2,4-dichloro-6-[(methyl(isopropyl)amino)carbonyl]phenyl]-N-methyl-1-(3-chloro-2-pyridinyl)-3-bromo-1H-pyrazole-5-carboxamide], in assay [1], the mortality at 12.5 µg/mL lay in the range of 90 to 100%, the mortality at 50 µg/mL was in the range of 90 to 100%, the mortality at 200 µg/mL fell in the range of 90 to 100% and the mortality at 500 µg/mL was 90 to 100%. Further, in assay [2], the mortality at 50 µg/mL was in the range of 90 to 100% and the mortality at 500 µg/mL was in the range of 90 to 100%.

In the case of `CN(C(=O)c1cc(Br)nn1-c1ncccc1Cl)c1c(Cl)cc(Cl)cc1C(=O)N(C)C1CC1` [Compound 14, N-[2,4-dichloro-6-[(methyl(cyclopropyl)amino)carbonyl]phenyl]-N-methyl-1-(3-chloro-2-pyridinyl)-3-bromo-1H-pyrazole-5-carboxamide], in assay [1], the mortality at 12.5 µg/mL lay in the range of 90 to 100%, the mortality at 50 µg/mL was in the range of 90 to 100%, the mortality at 200 µg/mL was in the range of 90 to 100% and the mortality at 500 µg/mL was 90 to 100%. Also, in assay [2], the mortality at 12.5 µg/mL was 90 to 100%; the mortality at 50 µg/mL lay within 90 to 100%; the mortality at 500 µg/mL lay in the range of 90 to 100%; the “Activity against armyworm, further screening (in words)” value is “excellent activity”.

On to `CCCN(CCC)C(=O)c1cc(Cl)cc(Cl)c1N(C)C(=O)c1cc(Br)nn1-c1ncccc1Cl` [Compound 16, N-[2,4-dichloro-6-[(dipropylamino)carbonyl]phenyl]-N-methyl-1-(3-chloro-2-pyridinyl)-3-bromo-1H-pyrazole-5-carboxamide], for which, in assay [1], the mortality at 12.5 µg/mL lay in the range of 90 to 100%, the mortality at 50 µg/mL is 90 to 100%, the mortality at 200 µg/mL lay within 90 to 100% and the mortality at 500 µg/mL lay within 90 to 100%. Besides, in assay [2], the mortality at 50 µg/mL is 90 to 100% and the mortality at 500 µg/mL lay within 90 to 100%.

Take `CCN(C(=O)c1cc(Br)nn1-c1ncccc1Cl)c1c(Cl)cc(Cl)cc1C(=O)N(C)C` [Compound 17, N-[2,4-dichloro-6-[(dimethylamino)carbonyl]phenyl]-N-ethyl-1-(3-chloro-2-pyridinyl)-3-bromo-1H-pyrazole-5-carboxamide]: in assay [1], the mortality at 12.5 µg/mL fell in the range of 90 to 100%, the mortality at 50 µg/mL was 90 to 100%, the mortality at 200 µg/mL was in the range of 90 to 100% and the mortality at 500 µg/mL fell in the range of 90 to 100%. Further, in assay [2], the mortality at 12.5 µg/mL fell in the range of 90 to 100%, the mortality at 50 µg/mL fell in the range of 90 to 100% and the mortality at 500 µg/mL was in the range of 90 to 100%.

`CCN(C)C(=O)c1cc(Cl)cc(Cl)c1N(CC)C(=O)c1cc(Br)nn1-c1ncccc1Cl` [Compound 18, N-[2,4-dichloro-6-[(methyl(ethyl)amino)carbonyl]phenyl]-N-ethyl-1-(3-chloro-2-pyridinyl)-3-bromo-1H-pyrazole-5-carboxamide]: in assay [1], the mortality at 12.5 µg/mL is 90 to 100%, the mortality at 50 µg/mL lay in the range of 90 to 100%, the mortality at 200 µg/mL is 90 to 100% and the mortality at 500 µg/mL lay in the range of 90 to 100%. In assay [2], the mortality at 50 µg/mL fell in the range of 90 to 100% and the mortality at 500 µg/mL was in the range of 90 to 100%.

Regarding `CCCN(C(=O)c1cc(Br)nn1-c1ncccc1Cl)c1c(Cl)cc(Cl)cc1C(=O)N(C)C` [Compound 19, N-[2,4-dichloro-6-[(dimethylamino)carbonyl]phenyl]-N-propyl-1-(3-chloro-2-pyridinyl)-3-bromo-1H-pyrazole-5-carboxamide], in assay [1], the mortality at 12.5 µg/mL was 90 to 100%, the mortality at 50 µg/mL was 90 to 100%, the mortality at 200 µg/mL lay within 90 to 100% and the mortality at 500 µg/mL fell in the range of 90 to 100%. Besides, in assay [2], the mortality at 50 µg/mL fell in the range of 90 to 100% and the mortality at 500 µg/mL is 90 to 100%.

`CCCN(C)C(=O)c1cc(Cl)cc(Cl)c1N(CCC)C(=O)c1cc(Br)nn1-c1ncccc1Cl` [Compound 20, N-[2,4-dichloro-6-[(methyl(propyl)amino)carbonyl]phenyl]-N-propyl-1-(3-chloro-2-pyridinyl)-3-bromo-1H-pyrazole-5-carboxamide]: in assay [1], the mortality at 200 µg/mL fell in the range of 90 to 100% and the mortality at 500 µg/mL lay within 90 to 100%. Also, in assay [2], the mortality at 50 µg/mL lay within 90 to 100% and the mortality at 500 µg/mL fell in the range of 90 to 100%.

Consider `CN(C)C(=S)c1cc(Cl)cc(Cl)c1N(C)C(=O)c1cc(Br)nn1-c1ncccc1Cl` [Compound 21, N-[2,4-dichloro-6-[(dimethylamino)thioxomethyl]phenyl]-N-methyl-1-(3-chloro-2-pyridinyl)-3-bromo-1H-pyrazole-5-carboxamide], for which, in assay [1], the mortality at 12.5 µg/mL lay within 90 to 100%, the mortality at 50 µg/mL was 90 to 100%, the mortality at 200 µg/mL lay in the range of 90 to 100% and the mortality at 500 µg/mL was in the range of 90 to 100%. In assay [2], the mortality at 50 µg/mL was 90 to 100% and the mortality at 500 µg/mL lay within 90 to 100%.

In the case of `CC(C)N(C)C(=S)c1cc(Cl)cc(Cl)c1N(C)C(=O)c1cc(Br)nn1-c1ncccc1Cl` [Compound 22, N-[2,4-dichloro-6-[(methyl(isopropyl)amino)thioxomethyl]phenyl]-N-methyl-1-(3-chloro-2-pyridinyl)-3-bromo-1H-pyrazole-5-carboxamide], in assay [1], the mortality at 12.5 µg/mL lay in the range of 90 to 100%, the mortality at 50 µg/mL was in the range of 90 to 100%, the mortality at 200 µg/mL lay in the range of 90 to 100% and the mortality at 500 µg/mL was 90 to 100%. Also, in assay [2], the mortality at 12.5 µg/mL was in the range of 90 to 100%, the mortality at 50 µg/mL is 90 to 100% and the mortality at 500 µg/mL lay in the range of 90 to 100%.

Take `CCN(CC)C(=S)c1cc(Cl)cc(Cl)c1N(C)C(=O)c1cc(Br)nn1-c1ncccc1Cl` [Compound 23, N-[2,4-dichloro-6-[(diethylamino)thioxomethyl]phenyl]-N-methyl-1-(3-chloro-2-pyridinyl)-3-bromo-1H-pyrazole-5-carboxamide]: in assay [1], the mortality at 200 µg/mL was 90 to 100% and the mortality at 500 µg/mL fell in the range of 90 to 100%. Moreover, in assay [2], the mortality at 12.5 µg/mL lay within 90 to 100%, the mortality at 50 µg/mL was in the range of 90 to 100% and the mortality at 500 µg/mL was in the range of 90 to 100%.

For `CCN(CC)C(=S)c1cc(Cl)cc(Cl)c1N(C)C(=S)c1cc(Br)nn1-c1ncccc1Cl` [Compound 24, N-[2,4-dichloro-6-[(diethylamino)thioxomethyl]phenyl]-N-methyl-1-(3-chloro-2-pyridinyl)-3-bromo-1H-pyrazole-5-carbothioamide], in assay [1], the mortality at 200 µg/mL is 90 to 100% and the mortality at 500 µg/mL lay within 90 to 100%. In assay [2], the mortality at 50 µg/mL was in the range of 90 to 100% and the mortality at 500 µg/mL fell in the range of 90 to 100%.

As for `O=[N+]([O-])/N=C1\NCCN1Cc1ccc(Cl)nc1` [imidacloprid, reference compound], the LC50 – broadly, the concentration that kills 50% of the test population – in assay [1] (read-out: LC50 against Aphis fabae) is below 1 µg/mL.
